Assay results reported in patent US20240368120A1 (Terns Pharmaceuticals, Inc., priority 2023, published 2024).

Molecular target: T1, human GLP-1R receptor (Homo sapiens, UniProt P43220)
T1 construct: expressed in transfected cells
Assay: GLP-1R low expression cell assay (cAMP TR-FRET, CHO-K1_hGLP-1Rlow_clone10 cells)
Type: cell-based
Conditions: for EC50: cAMP TR-FRET, 30 min at 25° C.; for Emax: maximum activation relative to control GLP-1 peptide agonist
Outline: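 CHO-K1 cells stably expressing low surface human GLP-1R (clone10), 1,000 cells/well, exposed to 10-point 3-fold compound dilutions for 30 min at 25 °C. cAMP measured by TR-FRET (Eu-cAMP tracer/ULight-anti-cAMP, 15 min). EC50 from Hill fit of duplicate percent activation relative to a parallel GLP-1 control agonist.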

T1 sequence (P43220 24-463): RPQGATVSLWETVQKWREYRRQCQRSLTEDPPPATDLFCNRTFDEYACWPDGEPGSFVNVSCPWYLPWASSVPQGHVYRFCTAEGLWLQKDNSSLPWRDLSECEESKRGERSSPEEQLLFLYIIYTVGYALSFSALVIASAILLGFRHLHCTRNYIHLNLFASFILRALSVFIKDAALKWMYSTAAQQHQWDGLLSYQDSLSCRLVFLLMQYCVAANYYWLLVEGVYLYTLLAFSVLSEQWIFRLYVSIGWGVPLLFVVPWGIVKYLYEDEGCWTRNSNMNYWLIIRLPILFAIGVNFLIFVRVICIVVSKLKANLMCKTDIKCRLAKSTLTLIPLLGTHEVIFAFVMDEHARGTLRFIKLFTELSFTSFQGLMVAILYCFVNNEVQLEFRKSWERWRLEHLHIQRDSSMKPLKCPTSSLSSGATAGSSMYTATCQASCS

| SMILES | EC50 [µM] | Emax [%] |
| --- | --- | --- |
| Cn1c(CN2CCC(c3cccc(OCc4ccc(Cl)cc4F)n3)CC2)nc2c(OC(F)F)nc(C(=O)O)cc21 [Compound 253, 2-((4-(6-((4-Chloro-2-fluorobenzyl)oxy)pyridin-2-yl)piperidin-1-yl)methyl)-4-(difluoromethoxy)-1-methyl-1H-imidazo[4,5-c]pyridine-6-carboxylic acid] | 0.01 to 0.1 | – |
| CCOc1cc(C(=O)O)cc2c1nc(CN1CCC(Oc3cccc(COc4ccc(Cl)cc4F)n3)CC1)n2C [Compound 256, 2-((4-((6-((4-chloro-2-fluorophenoxy)methyl)pyridin-2-yl)oxy)piperidin-1-yl)methyl)-4-ethoxy-1-methyl-1H-benzo[d]imidazole-6-carboxylic acid] | < 0.01 | > 85 |
| COc1cc(C#CC(=O)O)cc2c1nc(CN1CCC(c3cccc(OCc4ccc(Cl)cc4F)n3)CC1)n2C[C@@H]1CCO1 [Compound 257, (S)-3-(2-((4-(6-((4-Chloro-2-fluorobenzyl)oxy)pyridin-2-yl)piperidin-1-yl)methyl)-4-methoxy-1-(oxetan-2-ylmethyl)-1H-benzo[d]imidazol-6-yl) propiolic acid] | 0.01 to 0.1 | 50 to 85 |
| COc1cc(C(=O)O)cc2c1nc(CN1CCC(c3cccc4c3OC[C@H](c3ccc(Cl)cc3F)O4)CC1)n2C [Compound 258, (S)-2-((4-(2-(4-Chloro-2-fluorophenyl)-2,3-dihydrobenzo[b][1,4]dioxin-5-yl)piperidin-1-yl)methyl)-4-methoxy-1-methyl-1H-benzo[d]imidazole-6-carboxylic acid] | 0.1 to 1 | > 85 |
| CCOc1cc(CC(=O)O)cc2c1nc(CN1CCC(c3cccc(OCc4ccc(C#N)cc4F)n3)CC1)n2C [Compound 259, 2-(2-((4-(6-((4-Cyano-2-fluorobenzyl)oxy)pyridin-2-yl)piperidin-1-yl)methyl)-4-ethoxy-1-methyl-1H-benzo[d]imidazol-6-yl) acetic acid] | 0.1 to 1 | > 85 |
| CCOc1cc(C(=O)NS(C)(=O)=O)cc2c1nc(CN1CCC(c3cccc(OCc4ccc(C#N)cc4F)n3)CC1)n2C [Compound 261, 2-((4-(6-((4-Cyano-2-fluorobenzyl)oxy)pyridin-2-yl)piperidin-1-yl)methyl)-4-ethoxy-1-methyl-N-(methylsulfonyl)-1H-benzo[d]imidazole-6-carboxamide] | 0.01 to 0.1 | > 85 |
| Cn1c(CN2CCC(c3cccc(OCc4ccc(Cl)cc4F)c3)CC2)nc2c(OC(F)F)cc(NCC(=O)O)cc21 [Compound 264, (2-((4-(3-((4-chloro-2-fluorobenzyl)oxy)phenyl)piperidin-1-yl)methyl)-4-(difluoromethoxy)-1-methyl-1H-benzo[d]imidazol-6-yl)glycine] | > 1 | 25 to 50 |
| CCOc1cc(C(=O)O)cc2c1nc(CN1CCC(c3cccc4c3O[C@H](c3ccc(Cl)cc3F)CO4)CC1)n2C [Compound 265, (R)-2-((4-(3-(4-chloro-2-fluorophenyl)-2,3-dihydrobenzo[b][1,4]dioxin-5-yl)piperidin-1-yl)methyl)-4-ethoxy-1-methyl-1H-benzo[d]imidazole-6-carboxylic acid] | 0.01 to 0.1 | > 85 |
| CCOc1cc(C(=O)O)cc2c1nc(CN1CCC(c3cccc4c3OC[C@@H](c3ccc(Cl)cc3F)O4)CC1)n2C [Compound 269, (R)-2-((4-(2-(4-chloro-2-fluorophenyl)-2,3-dihydrobenzo[b][1,4]dioxin-5-yl)piperidin-1-yl)methyl)-4-ethoxy-1-methyl-1H-benzo[d]imidazole-6-carboxylic acid] | 0.1 to 1 | > 85 |
| CCOc1cc(C(=O)O)cc2c1nc(CN1CCC(c3cccc4c3OC[C@H](c3ccc(Cl)cc3F)O4)CC1)n2C [Compound 270, (S)-2-((4-(2-(4-Chloro-2-fluorophenyl)-2,3-dihydrobenzo[b][1,4]dioxin-5-yl)piperidin-1-yl)methyl)-4-ethoxy-1-methyl-1H-benzo[d]imidazole-6-carboxylic acid] | 0.01 to 0.1 | > 85 |
| COc1cc(C(=O)O)cc2c1nc(CN1CCC(c3cccc4c3OC[C@@H](c3ccc(Cl)cc3F)O4)CC1)n2C [Compound 271, (R)-2-((4-(2-(4-Chloro-2-fluorophenyl)-2,3-dihydrobenzo[b][1,4]dioxin-5-yl)piperidin-1-yl)methyl)-4-methoxy-1-methyl-1H-benzo[d]imidazole-6-carboxylic acid] | 0.1 to 1 | 50 to 85 |
| CCOc1cc(-c2nnn[nH]2)cc2c1nc(CN1CCC(c3cccc(OCc4ccc(C#N)cc4F)n3)CC1)n2C [Compound 273, 4-(((6-(1-((4-ethoxy-1-methyl-6-(1H-tetrazol-5-yl)-1H-benzo[d]imidazol-2-yl)methyl)piperidin-4-yl)pyridin-2-yl)oxy)methyl)-3-fluorobenzonitrile] | < 0.01 | > 85 |
| Cn1c(CN2CCC(c3cccc(OCc4ccc(Cl)cc4F)n3)CC2)nc2c3c(c(C(=O)O)cc21)OCO3 [Compound 275, 7-((4-(6-((4-Chloro-2-fluorobenzyl)oxy)pyridin-2-yl)piperidin-1-yl)methyl)-6-methyl-6H-[1,3]dioxolo[4′,5′:3,4]benzo[1,2-d]imidazole-4-carboxylic acid] | 0.01 to 0.1 | > 85 |

The next lines start with the values.

| EC50 [µM] | Emax [%] | SMILES |
| --- | --- | --- |
| 0.01 to 0.1 | – | Cn1c(CN2CCC(c3cccc(OCc4ccc(Cl)cc4)n3)CC2)nc2c(OC(F)F)cc(C(=O)O)cc21 [Compound 252, 2-((4-(6-((4-Chlorobenzyl)oxy)pyridin-2-yl)piperidin-1-yl)methyl)-4-(difluoromethoxy)-1-methyl-1H-benzo[d]imidazole-6-carboxylic acid] |
| 0.1 to 1 | – | Cn1c(CN2CCC(c3cccc(OCc4ccc(F)cc4)n3)CC2)nc2c(OC(F)F)cc(C(=O)O)cc21 [Compound 254, 4-(Difluoromethoxy)-2-((4-(6-((4-fluorobenzyl)oxy)pyridin-2-yl)piperidin-1-yl)methyl)-1-methyl-1H-benzo[d]imidazole-6-carboxylic acid] |
| 0.1 to 1 | 50 to 85 | Cn1c(CN2CCC(c3cccc(OCc4ccc(Cl)cc4F)n3)CC2)nc2c(OC(F)F)cc(NCC(=O)O)cc21 [Compound 255, (2-((4-(6-((4-chloro-2-fluorobenzyl)oxy)pyridin-2-yl)piperidin-1-yl)methyl)-4-(difluoromethoxy)-1-methyl-1H-benzo[d]imidazol-6-yl)glycine] |
| 0.01 to 0.1 | > 85 | CCOc1cc(-c2nc(=O)o[nH]2)cc2c1nc(CN1CCC(c3cccc(OCc4ccc(C#N)cc4F)n3)CC1)n2C [Compound 260, 4-(((6-(1-((4-ethoxy-1-methyl-6-(5-oxo-2,5-dihydro-1,2,4-oxadiazol-3-yl)-1H-benzo[d]imidazol-2-yl)methyl)piperidin-4-yl)pyridin-2-yl)oxy)methyl)-3-fluorobenzonitrile] |
| < 0.01 | > 85 | CCOc1cc(C(=O)O)cc2c1nc(CN1CCC(c3cccc4c3O[C@@H](c3ccc(Cl)cc3F)CO4)CC1)n2C [Compound 266, (S)-2-((4-(3-(4-chloro-2-fluorophenyl)-2,3-dihydrobenzo[b][1,4]dioxin-5-yl)piperidin-1-yl)methyl)-4-ethoxy-1-methyl-1H-benzo[d]imidazole-6-carboxylic acid] |
| 0.1 to 1 | > 85 | COc1cc(C(=O)O)cc2c1nc(CN1CCC(c3cccc4c3O[C@H](c3ccc(Cl)cc3F)CO4)CC1)n2C [Compound 267, (R)-2-((4-(3-(4-Chloro-2-fluorophenyl)-2,3-dihydrobenzo[b][1,4]dioxin-5-yl)piperidin-1-yl)methyl)-4-methoxy-1-methyl-1H-benzo[d]imidazole-6-carboxylic acid] |
| < 0.01 | > 85 | COc1cc(C(=O)O)cc2c1nc(CN1CCC(c3cccc4c3O[C@@H](c3ccc(Cl)cc3F)CO4)CC1)n2C [Compound 268, (S)-2-((4-(3-(4-Chloro-2-fluorophenyl)-2,3-dihydrobenzo[b][1,4]dioxin-5-yl)piperidin-1-yl)methyl)-4-methoxy-1-methyl-1H-benzo[d]imidazole-6-carboxylic acid] |
| < 0.01 | > 85 | COc1cc(C(=O)O)cc2c1nc(CN1CCC(c3cccc(OCc4cc(F)c(Cl)cc4F)n3)CC1)n2C [Compound 272, 2-((4-(6-((4-Chloro-2,5-difluorobenzyl)oxy)pyridin-2-yl)piperidin-1-yl)methyl)-4-methoxy-1-methyl-1H-benzo[d]imidazole-6-carboxylic acid] |
| > 1 | < 25 | COc1cc(C(=O)O)cc2c1nc(CN1CCC(c3cccc4c3OC[C@H](c3ccc(C#N)cc3F)O4)CC1)n2C [Compound 274, (S)-2-((4-(2-(4-Cyano-2-fluorophenyl)-2,3-dihydrobenzo[b][1,4]dioxin-5-yl)piperidin-1-yl)methyl)-4-methoxy-1-methyl-1H-benzo[d]imidazole-6-carboxylic acid] |
| 0.01 to 0.1 | > 85 | CCOc1cc(C(=O)O)cc2c1nc(CN1CCC(c3cccc4c3OC[C@@H](c3ccc(C#N)cc3F)O4)CC1)n2C [Compound 276, (R)-2-((4-(2-(4-Cyano-2-fluorophenyl)-2,3-dihydrobenzo[b][1,4]dioxin-5-yl)piperidin-1-yl)methyl)-4-ethoxy-1-methyl-1H-benzo[d]imidazole-6-carboxylic acid] |
| > 1 | 50 to 85 | CCOc1cc(C(=O)O)cc2c1nc(CN1CCC(c3cccc4c3OC[C@H](c3ccc(C#N)cc3F)O4)CC1)n2C [Compound 277, (S)-2-((4-(2-(4-Cyano-2-fluorophenyl)-2,3-dihydrobenzo[b][1,4]dioxin-5-yl)piperidin-1-yl)methyl)-4-ethoxy-1-methyl-1H-benzo[d]imidazole-6-carboxylic acid] |
